# Experimental data as given in patent US20220396565A1 (Hoffmann-La Roche Inc., priority 2020, published 2022).
# Counter-ions that a name gives are not always drawn. Like-named read-outs stand apart in the source and are kept apart here.
# Tested on: Acinetobacter baumannii ATCC17961
# Assay: Antimicrobial susceptibility testing: 90% growth inhibitory concentration (IC90) determination, Iso-Sensitest broth
# Format: cell-based
# Settings: Acinetobacter baumannii
# Experimental: The in vitro antimicrobial activity of the compounds was determined according to the following procedure:
# The assay used a 10-points Iso-Sensitest broth medium to measure quantitatively the in vitro activity of the compounds against Acinetobacter baumannii ATCC17978 or ATCC17961.
# Stock compounds in DMSO were serially twofold diluted (e.g. range from 10 to 0.02 μM final concentration) in 384 wells microtiter plates and inoculated with 49 μl the bacterial suspension in Iso-Sensitest medium to have a final cell concentration of ˜5×10^(5) CFU/ml in a final volume/well of 50 ul/well. Microtiter plates were incubated at 35±2° C.
# Bacterial cell growth was determined with the measurement of optical density at k=600 nm each 20 minutes over a time course of 16 h. Growth inhibition was calculated during the logarithmic growth of the bacterial cells with determination of the concentration inhibiting 50% (IC50) and 90% (IC90) of the growth.
# Table 1 provides the 90% growth inhibitory concentrations (IC90) in micromoles per liter of the compounds of present invention obtained against the strain Acinetobacter baumannii ATCC17978 or ATCC17961.
# [1] = ATCC17961, 90% growth inhibitory concentration, Acinetobacter baumannii ATCC17961, Iso-Sensitest broth, read-out: ATCC 17961 IC90
IC90 [1],Structure (SMILES),"IC90 (ATCC17961, read-out: ATCC 17961 IC90)"
60 nM,"Cn1c(-c2ccc(OCF)c(F)c2Cl)cnc1C(=O)Nc1ccc(C(=O)N2CCC(C(=O)NC[C@@H]3CCNC3)CC2)c(Cl)c1 [Example 62, 1-[2-chloro-4-[[5-[2-chloro-3-fluoro-4-(fluoromethoxy)phenyl]-1-methyl-imidazole-2-carbonyl]amino]benzoyl]-N-[[(3R)-pyrrolidin-3-yl]methyl]piperidine-4-carboxamide formate]",–
130 nM,"COc1ccc(-c2cnc(C(=O)Nc3ccc(C(=O)N4CCC(NS(C)(=O)=O)CC4)c(Cl)c3)n2C)c(F)c1F [Example 238, N-[3-chloro-4-[4-(methanesulfonamido)piperidine-1-carbonyl]phenyl]-5-(2,3-difluoro-4-methoxy-phenyl)-1-methyl-imidazole-2-carboxamide]",–
140 nM,"COc1ccc(-c2cnc(C(=O)Nc3ccc(C(=O)N4C[C@@H]5CN(C(=O)[C@@H]6CCNC6)C[C@@H]5C4)c(Cl)c3)n2C)c(F)c1F [Example 188, N-[4-[(3aR,6aS)-5-[(3R)-pyrrolidine-3-carbonyl]-1,3,3a,4,6,6a-hexahydropyrrolo[3,4-c]pyrrole-2-carbonyl]-3-chloro-phenyl]-5-(2,3-difluoro-4-methoxy-phenyl)-1-methyl-imidazole-2-carboxamide formate]",–
130 nM,"Cn1c(-c2ccc(OC(F)F)c(F)c2)cnc1C(=O)Nc1ccc(C(=O)N2CCN(C(=O)C[C@@H]3CCCN3)CC2)c(Cl)c1 [Example 181, N-[3-chloro-4-[4-[2-[(2S)-pyrrolidin-2-yl]acetyl]piperazine-1-carbonyl]phenyl]-5-[4-(difluoromethoxy)-3-fluoro-phenyl]-1-methyl-imidazole-2-carboxamide formate]",–
40 nM,"Cn1c(-c2ccc(OCF)c(F)c2F)cnc1C(=O)Nc1ccc(C(=O)N2CCC(C(=O)N[C@@H]3CCNC3)CC2)c(Cl)c1 [Example 90, (R)-1-(2-chloro-4-(5-(2,3-difluoro-4-(fluoromethoxy)phenyl)-1-methyl-1H-imidazole-2-carboxamido)benzoyl)-N-(pyrrolidin-3-yl)piperidine-4-carboxamide 2,2,2-trifluoroacetate]",–
60 nM,"COc1ccc(-c2cnc(C(=O)Nc3ccc(C(=O)N4CCC(C(=O)NC5CCNCC5)CC4)c(Cl)c3)n2C)c(F)c1F [Example 38, 1-[2-chloro-4-[[5-(2,3-difluoro-4-methoxy-phenyl)-1-methyl-imidazole-2-carbonyl]amino]benzoyl]-N-(4-piperidyl)piperidine-4-carboxamide formate]",–
340 nM,"CCc1cc(NC(=O)c2ncc(-c3ccc(OC)c(F)c3F)n2C)ccc1C(=O)N1CCC(C(=O)NCCN)CC1 [Example 100, N-(2-aminoethyl)-1-[4-[[5-(2,3-difluoro-4-methoxy-phenyl)-1-methyl-imidazole-2-carbonyl]amino]-2-ethyl-benzoyl]piperidine-4-carboxamide]",–
30 nM,"COc1ccc(-c2cnc(C(=O)Nc3ccc(C(=O)N4CCN(C(=O)CCCNC(=N)N)CC4)c(Cl)c3)n2C)c(F)c1F [Example 135, N-[3-chloro-4-[4-(4-guanidinobutanoyl)piperazine-1-carbonyl]phenyl]-5-(2,3-difluoro-4-methoxy-phenyl)-1-methyl-imidazole-2-carboxamide formate]",–
590 nM,"COCCOc1ccc(-c2cnc(C(=O)Nc3ccc(C(=O)N4CCN(C(=O)C5CCNCC5)CC4)c(Cl)c3)n2C)c(F)c1F [Example 255, N-[3-chloro-4-[4-(piperidine-4-carbonyl)piperazine-1-carbonyl]phenyl]-5-[2,3-difluoro-4-(2-methoxyethoxy)phenyl]-1-methyl-imidazole-2-carboxamide formate]",–
30 nM,"Cn1c(-c2ccc(OC(F)F)c(F)c2Cl)cnc1C(=O)Nc1ccc(C(=O)N2CCN(C(=O)C3(O)CCNCC3)CC2)c(Cl)c1 [Example 169, 5-[2-chloro-4-(difluoromethoxy)-3-fluoro-phenyl]-N-[3-chloro-4-[4-(4-hydroxypiperidine-4-carbonyl)piperazine-1-carbonyl]phenyl]-1-methyl-imidazole-2-carboxamide formate]",–
40 nM,"COc1ccc(-c2cnc(C(=O)Nc3ccc(C(=O)N4CCN(C(=O)CC5CCNC5)CC4)c(Cl)c3)n2C)c(F)c1F (centres unmarked) [Example 151, N-[3-chloro-4-[4-(2-pyrrolidin-3-ylacetyl)piperazine-1-carbonyl]phenyl]-5-(2,3-difluoro-4-methoxy-phenyl)-1-methyl-imidazole-2-carboxamide formate]",–
150 nM,"Cn1c(-c2ccc(OCC#N)c(F)c2F)cnc1C(=O)Nc1ccc(C(=O)N2CCC(C(=O)N3CC4(CNC4)C3)CC2)c(Cl)c1 [Example 85, N-(4-(4-(2,6-diazaspiro[3.3]heptane-2-carbonyl)piperidine-1-carbonyl)-3-chlorophenyl)-5-(4-(cyanomethoxy)-2,3-difluorophenyl)-1-methyl-1H-imidazole-2-carboxamide 2,2,2-trifluoroacetate]",–
40 nM,"Cn1c(-c2ccc(OCF)c(F)c2F)cnc1C(=O)Nc1ccc(C(=O)N2CCN(C(=O)CC3(O)CNC3)CC2)c(Cl)c1 [Example 160, N-[3-chloro-4-[4-[2-(3-hydroxyazetidin-3-yl)acetyl]piperazine-1-carbonyl]phenyl]-5-[2,3-difluoro-4-(fluoromethoxy)phenyl]-1-methyl-imidazole-2-carboxamide formate]",–
40 nM,"Cn1c(-c2ccc(OCF)c(F)c2F)cnc1C(=O)Nc1ccc(C(=O)N2CCC(C(=O)NC[C@@H]3CCNC3)CC2)c(Cl)c1 [Example 54, 1-[2-chloro-4-[[5-[2,3-difluoro-4-(fluoromethoxy)phenyl]-1-methyl-imidazole-2-carbonyl]amino]benzoyl]-N-[[(3R)-pyrrolidin-3-yl]methyl]piperidine-4-carboxamide formate]",–
–,"Cn1c(-c2ccc(OCC#N)c(F)c2F)cnc1C(=O)Nc1ccc(C(=O)N2CCC(C(=O)NCC(O)CN)CC2)c(Cl)c1 (centres unmarked) [Example 84, N-(3-amino-2-hydroxypropyl)-1-(2-chloro-4-(5-(4-(cyanomethoxy)-2,3-difluorophenyl)-1-methyl-1H-imidazole-2-carboxamido)benzoyl) piperidine-4-carboxamide 2,2,2-trifluoroacetate]",90 nM
120 nM,"COc1ccc(-c2cnc(C(=O)Nc3ccc(C(=O)N4CCN(S(=O)(=O)C5CCNCC5)CC4)c(Cl)c3)n2C)c(F)c1F [Example 216, N-(3-chloro-4-(4-(piperidin-4-ylsulfonyl)piperazine-1-carbonyl)phenyl)-5-(2,3-difluoro-4-methoxyphenyl)-1-methyl-1H-imidazole-2-carboxamide formate]",–
60 nM,"COc1ccc(-c2cnc(C(=O)Nc3ccc(C(=O)N4CCN(C(=O)C5CC(CN)C5)CC4)c(Cl)c3)n2C)c(F)c1F (centres unmarked) [Example 185, N-[4-[4-[3-(aminomethyl)cyclobutanecarbonyl]piperazine-1-carbonyl]-3-chloro-phenyl]-5-(2,3-difluoro-4-methoxy-phenyl)-1-methyl-imidazole-2-carboxamide formate]",–
260 nM,"CCc1cc(NC(=O)c2ncc(-c3ccc(OC)c(F)c3F)n2C)ccc1C(=O)N1CCC(C(=O)N2CCN(CCCN(C)C)CC2)CC1 [Example 97, 5-(2,3-difluoro-4-methoxy-phenyl)-N-[4-[4-[4-[3-(dimethylamino)propyl]piperazine-1-carbonyl]piperidine-1-carbonyl]-3-ethyl-phenyl]-1-methyl-imidazole-2-carboxamide]",–
460 nM,"COc1ccc(-c2cnc(C(=O)Nc3ccc(C(=O)N4CCN(C(=O)C5CCNCC5)CC4)c(Cl)c3)n2C)cc1C#N [Example 192, N-[3-chloro-4-[4-(piperidine-4-carbonyl)piperazine-1-carbonyl]phenyl]-5-(3-cyano-4-methoxy-phenyl)-1-methyl-imidazole-2-carboxamide formate]",–
40 nM,"COc1ccc(-c2cnc(C(=O)Nc3ccc(C(=O)N4CCN(C(=O)[C@H]5C[C@H](N)C5)CC4)c(Cl)c3)n2C)c(F)c1F [Example 137, N-[4-[4-(3-aminocyclobutanecarbonyl)piperazine-1-carbonyl]-3-chloro-phenyl]-5-(2,3-difluoro-4-methoxy-phenyl)-1-methyl-imidazole-2-carboxamide formate]",–
230 nM,"Cn1c(-c2ccc(F)c(F)c2F)cnc1C(=O)Nc1ccc(C(=O)N2CCN(C(=O)C3CCNCC3)CC2)c(Cl)c1 [Example 191, N-[3-chloro-4-[4-(piperidine-4-carbonyl)piperazine-1-carbonyl]phenyl]-1-methyl-5-(2,3,4-trifluorophenyl)imidazole-2-carboxamide formate]",–
50 nM,"COc1ccc(-c2cnc(C(=O)Nc3ccc(C(=O)N4CCN(C(=O)[C@H]5C[C@@H](N)C5)CC4)c(Cl)c3)n2C)c(F)c1F [Example 140, N-[4-[4-(3-aminocyclobutanecarbonyl)piperazine-1-carbonyl]-3-chloro-phenyl]-5-(2,3-difluoro-4-methoxy-phenyl)-1-methyl-imidazole-2-carboxamide formate]",–
270 nM,"COc1ccc(-c2cnc(C(=O)Nc3ccc(C(=O)N4CCN(C(=O)CC5NC(=O)NC5=O)CC4)c(Cl)c3)n2C)c(F)c1F (centres unmarked) [Example 128, N-[3-chloro-4-[4-[2-(2,5-dioxoimidazolidin-4-yl)acetyl]piperazine-1-carbonyl]phenyl]-5-(2,3-difluoro-4-methoxy-phenyl)-1-methyl-imidazole-2-carboxamide]",–
